Tests used:
[1] = test system: MDA-MB-231 human breast cancer cell line; experiment: Cancer cell growth inhibition, WST-8; type: cell-based; conditions: MDA-MB-231, 96 h, 4 days
Procedure: (§1) The effect of the compounds of the present invention on the growth of various cancer cell lines was tested. Cells were seeded in 96-well flat bottom cell culture plates at a density of 3000 cells/well with a tested compound and incubated at 37° C. in an atmosphere of 95% air and 5% CO2 for 4 days. The rate of cell growth inhibition after treatment with different concentrations of the compound was determined using a WST-8 kit (2-(2-methoxy-4-nitrophenyl)-3-(4-nitrophenyl)-5-(2,4 disulfophenyl)-2H-tetrazolium monosodium salt; Dojindo Molecular Technologies, Inc., Gaithersburg, Md.). WST-8 was added at a final concentration of 10% to each well, and then the plates were incubated at 37° C. for 2-3 hrs. The absorbance of the samples was measured at 450 nm using a ULTRA Tecan Reader (Molecular Device). The concentration of the tested compound that inhibited cell growth by 50% (IC50) was calculated by comparing absorbance in untreated cells and the cells treated with the tested compound.

[2] = test system: SK-OV-3 ovarian cancer cell line; experiment: Cancer cell growth inhibition, WST-8; type: cell-based; conditions: Homo sapiens, SK-OV-3, 96 h, 4 days
Procedure: as §1

[3] = target: XIAP Linker-BIR2-BIR3 Protein (Homo sapiens (Human), UniProt P98170); experiment: Fluorescence polarization-based binding assay, XIAP Linker-BIR2-BIR3; conditions: 3 nM XIAP protein (residues 120-356), 1 nM Smac2-F
Source text: An in vitro fluorescence polarization (FP) based binding assay was used to test the binding ability of the compounds of the present invention to XIAP linker-BIR2-BIR3 protein (Nikolovska-Coleska et al., Anal. Biochem. 374:87-98 (2008)).
For this assay a bivalent Smac peptido-mimetic labeled with a fluorescence tag (FAM), termed Smac2-F, was employed. […] The recombinant XIAP Linker-BIR2-BIR3 protein of human XIAP (residues 120-356) fused to His-tag was stable and soluble, and was used for the FP-based binding assay.
For the competitive binding experiments, a tested compound was incubated with 3 nM of XIAP protein (residues 120-356) and 1 nM of Smac2-F in the assay buffer (100 mM potassium phosphate, pH 7.5; 100 μg/ml bovine gamma globulin; 0.02% sodium azide) in black, round-bottom plates. For each experiment, the controls include XIAP and Smac2-F peptide (equivalent to 0% inhibition), and Smac-2F only (equal to 100% of inhibition). The polarization values are measured after 2 hours incubation, using the Ultra plate reader. The IC50 value, the inhibitor concentration at which 50% of bound tracer was displaced, is determined from the plot using nonlinear least-squares analysis. Curve fitting is performed using GraphPad Prism® software.

[4] = target: cIAP1 BIR3 Protein (Homo sapiens (Human), UniProt Q13490); experiment: Fluorescence polarization-based competitive binding assay, cIAP-1 BIR3; conditions: 10 nM cIAP-1 BIR3 protein, 2 nM SM5F tracer
Procedure: (§2) An in vitro fluorescence polarization (FP) based binding assay was used to test the binding ability of the compounds of the present invention to certain IAP proteins (Nikolovska-Coleska et al., Anal. Biochem. 332:261-73 (2004)).
(§3) Human cIAP-1 BIR3-only (residues 253-363) and cIAP2 BIR3-only (residues 238-349) were cloned into pHis-TEV vector, produced and purified using the same method as for the XIAP BIR3 protein.
(§4) In competitive binding experiments, 10 nM of cIAP-1 BIR3 protein and 2 nM of SM5F tracer were used. […] In competitive binding experiments, 25 nM of cIAP-2 BIR3 protein and 2 nM of SM5F tracer were used.
(§5) For each competitive binding experiment, polarization values were measured after 2-3 hours incubation using an Ultra plate reader. The IC50 value, the inhibitor concentration at which 50% of bound tracer was displaced, was determined from the plot using nonlinear least-squares analysis. Curve fitting was performed using the PRISM software (GraphPad Software, Inc., San Diego, Calif.). Ki value for each compound was calculated based upon the IC50 value using a previously reported algorithm and its associated computer program (Nikolovska-Coleska et al., Anal. Biochem. 332:261-73 (2004)).

[5] = target: cIAP2 BIR3 Protein (Homo sapiens (Human), UniProt Q13489); experiment: Fluorescence polarization-based competitive binding assay, cIAP-2 BIR3; conditions: 25 nM cIAP-2 BIR3 protein, 2 nM SM5F tracer
Procedure: as §2, §3, §4, §5

[6] = test system: ovarian cancer SK-OV-3 cell line; experiment: Induction of cell death, trypan blue exclusion assay; type: cell-based, human; conditions: SK-OV-3, 48 hours, FIG. 2
Procedure: (§6) The ability of SM-1258 and SM-1267 to induce cell death was tested in the breast cancer MDA-MB-231 (FIG. 1) and ovarian cancer SK-OV-3 (FIG. 2) cell lines. Cells were treated with SM-1258 and SM-1267 for 48 hours and cell viability was determined using the trypan blue exclusion assay.

[7] = test system: breast cancer MDA-MB-231 cell line; experiment: as above; type: cell-based, human; conditions: MDA-MB-231, 48 hours, FIG. 1
Procedure: as §6

[8] = target: XIAP BIR3 (Homo sapiens (Human), UniProt P98170); conditions: cited from earlier work
XIAP BIR3, sequence (P98170 241-356): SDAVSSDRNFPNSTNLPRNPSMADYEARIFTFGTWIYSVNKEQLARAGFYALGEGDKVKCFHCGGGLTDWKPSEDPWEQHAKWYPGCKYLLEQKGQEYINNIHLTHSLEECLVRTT

cIAP2 BIR3 Protein, sequence (Q13489 238-349): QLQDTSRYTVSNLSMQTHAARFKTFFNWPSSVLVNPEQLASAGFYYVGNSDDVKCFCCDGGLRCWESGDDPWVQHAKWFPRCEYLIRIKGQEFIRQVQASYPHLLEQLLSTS
cIAP1 BIR3 Protein, sequence (Q13490 253-363): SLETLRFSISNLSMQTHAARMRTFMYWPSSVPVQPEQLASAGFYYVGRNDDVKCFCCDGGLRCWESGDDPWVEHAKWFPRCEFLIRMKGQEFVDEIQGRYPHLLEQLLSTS
XIAP Linker-BIR2-BIR3 Protein, sequence (P98170 120-356): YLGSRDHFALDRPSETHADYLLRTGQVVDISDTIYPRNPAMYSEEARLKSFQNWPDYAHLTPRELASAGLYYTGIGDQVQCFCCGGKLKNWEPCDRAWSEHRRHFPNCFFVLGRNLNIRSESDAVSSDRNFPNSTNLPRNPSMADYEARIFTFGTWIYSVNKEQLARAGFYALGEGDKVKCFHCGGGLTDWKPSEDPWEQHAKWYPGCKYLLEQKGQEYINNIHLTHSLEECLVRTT

Molecule: CN[C@@H](C)C(=O)N[C@H]1CN(C(=O)CCCCCCCCCCC(=O)N2CC[C@H]3CC[C@@H](c4nc5cccc(-c6ccccc6)c5[nH]4)N3C(=O)[C@@H](NC(=O)[C@H](C)NC)C2)CC[C@H]2CC[C@@H](c3nc4c(-c5ccccc5)cccc4[nH]3)N2C1=O [SM-1258]
- IC50 [1]: < 10 nM
- IC50 [2]: < 20 nM
- IC50 [3]: < 10 nM
- IC50 [4]: < 50 nM

Molecule: CN[C@@H](C)C(=O)N[C@H]1CN(C(=O)CCCCOCCCCC(=O)N2CC[C@H]3CC[C@@H](c4nc5cccc(-c6ccccc6)c5[nH]4)N3C(=O)[C@@H](NC(=O)[C@H](C)NC)C2)CC[C@H]2CC[C@@H](c3nc4c(-c5ccccc5)cccc4[nH]3)N2C1=O [SM-1259]
- IC50 [1]: < 10 nM
- IC50 [3]: < 10 nM
- IC50 [4]: < 10 nM
- IC50 [5]: < 20 nM

Molecule: CN[C@@H](C)C(=O)N[C@H]1CN(C(=O)CCCCC(=O)N2CC[C@H]3CC[C@@H](c4nc5cccc(-c6ccccc6)c5[nH]4)N3C(=O)[C@@H](NC(=O)[C@H](C)NC)C2)CC[C@H]2CC[C@@H](c3nc4c(-c5ccccc5)cccc4[nH]3)N2C1=O [SM-1265]
- IC50 [1]: < 50 nM
- IC50 [3]: < 50 nM
- IC50 [4]: < 10 nM
- IC50 [5]: < 10 nM

Molecule: CN[C@@H](C)C(=O)N[C@H]1CN(C(=O)CCCCCCC(=O)N2CC[C@H]3CC[C@@H](c4nc5cccc(-c6ccccc6)c5[nH]4)N3C(=O)[C@@H](NC(=O)[C@H](C)NC)C2)CC[C@H]2CC[C@@H](c3nc4c(-c5ccccc5)cccc4[nH]3)N2C1=O [SM-1266]
- IC50 [1]: < 10 nM
- IC50 [3]: < 10 nM
- IC50 [4]: < 10 nM
- IC50 [5]: < 20 nM

Molecule: CN[C@@H](C)C(=O)N[C@H]1CN(C(=O)CCCCCCCCC(=O)N2CC[C@H]3CC[C@@H](c4nc5cccc(-c6ccccc6)c5[nH]4)N3C(=O)[C@@H](NC(=O)[C@H](C)NC)C2)CC[C@H]2CC[C@@H](c3nc4c(-c5ccccc5)cccc4[nH]3)N2C1=O [SM-1267]
- IC50 [1]: < 10 nM
- IC50 [3]: < 10 nM
- IC50 [4]: < 10 nM
- induction of cell death [6]: induced cell death
- induction of cell death [7]: induced cell death
- IC50 [5]: < 50 nM

B1: mature Smac protein: second mitochondria-derived activator of caspases, mature polypeptide (protein, UniProt Q9NR28 22-239, looked up)
Diablo IAP-binding …: LCVPVVANFKKRCFSELIRPWHKTVTIGFGVTLCAVPIAQKSEPHSLSSEALMRRAVSLVTDSTSTFLSQTTYALIEAITEYTKAVYTLTSLYRQYTSLLGKMNSEEEDEVWQVIIGARAEMTSKHQEYLKLETTWMTAVGLSEMAAEAAYQTGADQASITARNHIQLVKLQVEEVHQLSRKAETKLAEAQIEELRQKTQEEGEERAESEQEAYLRED
- Kd [8]: 420 nM

From patent US8815927B2, “Bivalent diazo bicyclic Smac mimetics and the uses thereof” (The Regents of the University of Michigan, priority 2009, dated 2014)
